Experimental findings from PubChem BioAssay (NCI) are described below.

By GI50 is commonly meant the concentration at which growth is held to half of that of the control. As usually defined, the TGI is the concentration at which net growth stops. Read a high TGI as lower sensitivity of the cells.

Structures are written as SMILES.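 96-well plates; 48 h exposure; 5 concentrations. Endpoints by linear interpolation between flanking doses. Not reached: highest tested concentration assigned. Here, GI50 denotes the concentration required for 50% inhibition of growth. The concentration for full growth arrest is given as TGI.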

Test systems include BT-549 breast; CCRF-CEM leukemia; COLO 205 colon; HCC-2998 colon; HCT-116 colon; K-562 leukemia; MCF7 breast; U251 CNS; NCI/ADR-RES ovarian; LOX IMVI melanoma.
Test in all cases: DTP human tumour cell line panel, 48 h

Turning to `Nc1cc2cccc[n+]2c2cc(Cl)ccc12`, the GI50 in the experiment with BT-549 breast was 7.24 µM; in the experiment on CCRF-CEM leukemia, 3.23 µM; in the experiment with COLO 205 colon it was 11.8 µM; with HCC-2998 colon, 16.8 µM; in the experiment on HCT-116 colon, 30.2 µM; in the experiment on K-562 leukemia, 3.01 µM. The GI50 is 17.9 µM in the experiment with MCF7 breast and 4.56 µM with U251 CNS. Besides, the concentration for total growth inhibition (TGI) with BT-549 breast amounted to 25.2 µM; in the experiment on CCRF-CEM leukemia it was 35.3 µM; with HCC-2998 colon, 37.7 µM; in the experiment with K-562 leukemia, 22 µM; in the experiment on MCF7 breast, 63 µM; in the experiment on U251 CNS, 25.4 µM.
For `CN(CCCN)CCCNc1nc2ccccc2c2[nH]c3ccccc3c12`, the GI50 with BT-549 breast was 0.924 µM; with CCRF-CEM leukemia, 0.173 µM; with COLO 205 colon, 0.178 µM; in the experiment with HCC-2998 colon, 0.113 µM; in the experiment with HCT-116 colon, 0.173 µM; in the experiment on K-562 leukemia it was 0.0638 µM. In addition, the GI50 in the experiment with MCF7 breast was 0.245 µM; in the experiment with NCI/ADR-RES ovarian, 1.48 µM; with U251 CNS it was 0.159 µM. The TGI in the experiment on BT-549 breast came out at 2.15 µM; with CCRF-CEM leukemia, 1.58 µM; in the experiment with COLO 205 colon, 0.509 µM; in the experiment with HCC-2998 colon, 0.271 µM; in the experiment on HCT-116 colon, 1.2 µM; in the experiment with K-562 leukemia it was 0.346 µM. Further, the TGI with MCF7 breast turned out to be 1.03 µM; in the experiment with NCI/ADR-RES ovarian, 10.8 µM; in the experiment on U251 CNS, 1.07 µM.
With `CC(C)(C)C#CC1=C(Br)C(=O)OC1`, the GI50 in the experiment on BT-549 breast is 4.89 µM; with CCRF-CEM leukemia, 2.45 µM; in the experiment with COLO 205 colon, 31.6 µM; in the experiment on HCC-2998 colon it was 1.59 µM; in the experiment with K-562 leukemia, 0.841 µM; in the experiment with LOX IMVI melanoma, 1.7 µM. For the same compound, the GI50 with MCF7 breast is 3.99 µM; in the experiment with NCI/ADR-RES ovarian, 0.426 µM; in the experiment with U251 CNS, 0.997 µM. In addition, the TGI is 19.7 µM in the experiment on BT-549 breast; over 27.7 µM with CCRF-CEM leukemia; over 100 µM with COLO 205 colon; 3.12 µM in the experiment on HCC-2998 colon; over 21.2 µM with LOX IMVI melanoma; 25.9 µM with MCF7 breast. Further, the concentration for total growth inhibition (TGI) was 2.8 µM in the experiment on NCI/ADR-RES ovarian and over 36.5 µM in the experiment on U251 CNS.
For the compound `CNC(=O)OCc1nc(SC2CCCCO2)n(C)c1COC(=O)NC` (stereo unspecified), the TGI in the experiment with CCRF-CEM leukemia, in the experiment on COLO 205 colon, in the experiment with HCC-2998 colon, in the experiment on HCT-116 colon, in the experiment with K-562 leukemia and in the experiment with LOX IMVI melanoma was over 100 µM throughout. Also, the TGI in the experiment on MCF7 breast, in the experiment with NCI/ADR-RES ovarian and in the experiment on U251 CNS was over 100 µM in each case.
In the case of `O=C(Cn1ccc(=O)[nH]c1=O)Nc1ccc(C(=O)O)c(O)c1`, the TGI with BT-549 breast, in the experiment with CCRF-CEM leukemia, in the experiment on COLO 205 colon, in the experiment with HCT-116 colon, in the experiment with K-562 leukemia and in the experiment on LOX IMVI melanoma was over 100 µM each time. The TGI in the experiment with MCF7 breast, in the experiment with NCI/ADR-RES ovarian and in the experiment with U251 CNS was over 100 µM each time.
As to `COc1c2c(c3c(c1CCC(=O)O)OC(C)(C)C=C3)OC(C)(C)C=C2`, the TGI with BT-549 breast, in the experiment with COLO 205 colon, with HCC-2998 colon, in the experiment with HCT-116 colon, with K-562 leukemia and in the experiment with LOX IMVI melanoma was over 100 µM throughout. The TGI with MCF7 breast, in the experiment on NCI/ADR-RES ovarian and in the experiment with U251 CNS was over 100 µM each time.
For the compound `COC(=O)CCC1CCc2c(OC)ccc(O)c2C1=O` (stereo unspecified), the TGI with CCRF-CEM leukemia, in the experiment with COLO 205 colon, in the experiment on HCC-2998 colon, in the experiment with HCT-116 colon, with K-562 leukemia and in the experiment with LOX IMVI melanoma was over 100 µM throughout. Moreover, in the experiment on U251 CNS, the TGI is over 100 µM.
In the case of `Cc1sc(C(=O)Nc2cc(C(=O)NCCCN(C)C)n(C)c2)cc1NC(=O)CCCN1C(=O)c2cccc3cccc(c23)C1=O`, the GI50 in the experiment with CCRF-CEM leukemia, with COLO 205 colon, in the experiment on HCC-2998 colon, with HCT-116 colon, in the experiment on K-562 leukemia and with LOX IMVI melanoma was over 100 µM in each case. Moreover, the GI50 in the experiment on MCF7 breast, in the experiment with NCI/ADR-RES ovarian and in the experiment on U251 CNS was over 100 µM in each case. Also, the TGI with CCRF-CEM leukemia, with COLO 205 colon, in the experiment with HCC-2998 colon, in the experiment with HCT-116 colon, in the experiment with K-562 leukemia and in the experiment on LOX IMVI melanoma was over 100 µM each time. Also, the TGI in the experiment on MCF7 breast, with NCI/ADR-RES ovarian and in the experiment with U251 CNS was over 100 µM in each case.
With `O=C(CC(=O)CC(O)(C(F)(F)F)C(F)(F)F)CC(O)(C(F)(F)F)C(F)(F)F`, the concentration for total growth inhibition (TGI) in the experiment with BT-549 breast, with CCRF-CEM leukemia, in the experiment with COLO 205 colon, in the experiment on HCT-116 colon, in the experiment on K-562 leukemia and in the experiment with LOX IMVI melanoma was over 10 µM in each case. In addition, the TGI in the experiment on MCF7 breast, with NCI/ADR-RES ovarian and in the experiment on U251 CNS was over 10 µM each time.
For `O=C([O-])c1ccccc1Nc1ccccn1.O=C([O-])c1ccccc1Nc1ccccn1.[Ni+2]`, the GI50 with CCRF-CEM leukemia is over 100 µM; in the experiment with COLO 205 colon, over 100 µM; in the experiment with HCC-2998 colon, over 100 µM; with HCT-116 colon, over 100 µM; in the experiment on K-562 leukemia, 49.5 µM; in the experiment on LOX IMVI melanoma, over 100 µM. Further, the GI50 in the experiment on U251 CNS is over 100 µM. The TGI in the experiment with CCRF-CEM leukemia, with COLO 205 colon, with HCC-2998 colon, in the experiment on HCT-116 colon, in the experiment on K-562 leukemia and in the experiment on LOX IMVI melanoma was over 100 µM each time. Moreover, the concentration for total growth inhibition (TGI) in the experiment with U251 CNS was over 100 µM.
For the compound `CC(=O)NNc1nc(C)c(C(=O)NNC(=O)C(=O)Nc2ccccc2C#N)s1`, the TGI in the experiment with CCRF-CEM leukemia, with COLO 205 colon, in the experiment on HCC-2998 colon, with HCT-116 colon, in the experiment with K-562 leukemia and in the experiment with LOX IMVI melanoma was over 100 µM each time. Besides, the TGI in the experiment on U251 CNS is over 100 µM.
